The values that follow come from PMC2248166, “Quantitative peptide binding motifs for 19 human and mouse MHC class I molecules derived using positional scanning combinatorial peptide libraries” (Immunome Research, 2008).

Where a SMILES comes first, the peptide text is derived from it.

For one test, the target named is HLA B*1503 (Homo sapiens, UniProt P01889, A329T/A93T/A95T/C349S/D201E/D98Y/E187L/E204Q/K202T/N87E/Q94N/R155S/R180L/S121R/S35A/V306I/V36M/Y140S/Y91S). In words: biochemical. The format is binding.
In turn, `CC[C@H](C)[C@H](NC(=O)[C@H](Cc1c[nH]cn1)NC(=O)[C@H](Cc1ccc(O)cc1)NC(=O)[C@H](C)NC(=O)[C@H](CCCCN)NC(=O)[C@@H](N)CCCNC(=N)N)C(=O)N[C@H](C(=O)N[C@@H](Cc1ccccc1)C(=O)N[C@@H](Cc1ccccc1)C(=O)O)[C@@H](C)CC` [3102.1054] (H-RKAYHIIFF-OH) returned a 50% inhibitory concentration (IC50) of 0.037 nM. The same measure, in the same setting: as for `CC(C)C[C@H](NC(=O)[C@H](CO)NC(=O)[C@H](CCC(N)=O)NC(=O)[C@@H](N)Cc1ccc(O)cc1)C(=O)N[C@@H](CO)C(=O)N1CCC[C@H]1C(=O)N1CCC[C@H]1C(=O)N1CCC[C@H]1C(=O)N[C@@H](Cc1ccccc1)C(=O)O` [3102.1242] (H-YQSLSPPPF-OH), the figure is 0.061 nM.

A further test has as its target HLA B*1501 (Homo sapiens, UniProt P01889, A329T/A93T/A95T/C349S/D201E/D98Y/E187L/E204Q/E69M/E70A/K202T/N87E/Q94N/R155S/R180W/S121R/S35A/S48A/V306I/V36M/Y140S/Y91S). In words: biochemical. In kind it is binding.
In the case of `CC[C@H](C)[C@H](NC(=O)CNC(=O)[C@@H]1CCCN1C(=O)[C@@H](NC(=O)[C@H](CCCNC(=N)N)NC(=O)[C@H](CCC(N)=O)NC(=O)[C@H](CCCCN)NC(=O)[C@H](CC(C)C)NC(=O)[C@@H](N)CCCNC(=N)N)[C@@H](C)O)C(=O)O` [3102.0640] (H-RLKQRTPGI-OH), 17 nM corresponded to half-maximal inhibition (IC50). On the same count and under the same terms, as for `CSCC[C@H](NC(=O)[C@H](CC(C)C)NC(=O)[C@H](Cc1ccc(O)cc1)NC(=O)[C@H](CCCCN)NC(=O)[C@H](CCSC)NC(=O)[C@@H](N)CO)C(=O)N[C@@H](CC(C)C)C(=O)N[C@@H](CC(C)C)C(=O)N[C@@H](Cc1ccccc1)C(=O)O` [3102.0789] (H-SMKYLMLLF-OH), the figure is 3.8 nM; as for `CC(C)C[C@H](N)C(=O)NCC(=O)N[C@@H](Cc1ccccc1)C(=O)N[C@@H](CC(=O)O)C(=O)N[C@H](C(=O)N[C@H](C(=O)N[C@@H](C)C(=O)N[C@@H](Cc1ccc(O)cc1)C(=O)N[C@@H](Cc1ccccc1)C(=O)O)C(C)C)C(C)C` [3102.0790] (H-LGFDVVAYF-OH), 67 nM; as for `CC[C@H](C)[C@H](NC(=O)CN)C(=O)N[C@@H](CC(N)=O)C(=O)N[C@@H](CCCCN)C(=O)N[C@@H](CCCNC(=N)N)C(=O)N[C@@H](CO)C(=O)N[C@H](C(=O)N1CCC[C@H]1C(=O)N[C@@H](Cc1ccccc1)C(=O)O)[C@@H](C)O` [3102.0792] (H-GINKRSTPF-OH), 0.72 nM. The same measure, in the same setting: then `CC[C@H](C)[C@H](NC(=O)[C@H](CO)NC(=O)[C@H](CO)NC(=O)[C@H](CCCCN)NC(=O)[C@@H](NC(=O)[C@@H](N)CC(C)C)C(C)C)C(=O)N[C@@H](CC(C)C)C(=O)N[C@H](C(=O)N[C@@H](CC(C)C)C(=O)O)[C@@H](C)O` [3102.0793] (H-LVKSSILTL-OH), with 3.1 nM; and `CSCC[C@H](NC(=O)[C@@H](N)CCCNC(=N)N)C(=O)N[C@@H](CC(N)=O)C(=O)N[C@H](C(=O)N[C@@H](Cc1ccccc1)C(=O)N[C@@H](CC(N)=O)C(=O)NCC(=O)N[C@@H](Cc1c[nH]cn1)C(=O)N[C@@H](CC(C)C)C(=O)O)C(C)C` [3102.0797] (H-RMNVFNGHL-OH), with 28 nM; and `CC(C)C[C@H](N)C(=O)N[C@@H](C)C(=O)N[C@@H](CC(N)=O)C(=O)N[C@H](C(=O)N[C@@H](CC(N)=O)C(=O)N[C@@H](Cc1ccccc1)C(=O)N[C@@H](Cc1ccccc1)C(=O)N[C@H](C(=O)N[C@@H](Cc1ccccc1)C(=O)O)C(C)C)[C@@H](C)O` [3102.0800] (H-LANTNFFVF-OH), with 17 nM.

The target of another test is HLA A*3001 (Homo sapiens, UniProt P04439, D140H/D185E/E176W/F33S/G80R/H175R/K168Q/R138E/R41S). In words: biochemical. The format is binding.
Chain of HLA A*3001 (P04439 25-365 limits assumed, stated change not applied): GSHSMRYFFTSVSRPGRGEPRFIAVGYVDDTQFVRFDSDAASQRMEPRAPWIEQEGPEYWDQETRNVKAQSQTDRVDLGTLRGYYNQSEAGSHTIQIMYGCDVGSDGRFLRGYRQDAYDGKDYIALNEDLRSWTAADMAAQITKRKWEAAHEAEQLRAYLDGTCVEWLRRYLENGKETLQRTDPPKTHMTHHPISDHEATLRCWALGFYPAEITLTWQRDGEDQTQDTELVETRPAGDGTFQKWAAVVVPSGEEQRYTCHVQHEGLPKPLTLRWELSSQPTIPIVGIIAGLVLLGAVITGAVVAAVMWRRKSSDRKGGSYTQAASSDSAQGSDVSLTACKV
For the molecule `CC(C)[C@H](NC(=O)[C@H](Cc1c[nH]cn1)NC(=O)[C@@H](NC(=O)[C@H](CC(=O)O)NC(=O)[C@H](CCCCN)NC(=O)[C@H](CO)NC(=O)[C@@H](N)CCCNC(=N)N)[C@@H](C)O)C(=O)N[C@@H](Cc1ccccc1)C(=O)N[C@@H](C)C(=O)O` [3102.0271] (H-RSKDTHVFA-OH), the half-maximal inhibitory concentration (IC50) was 0.019 nM.

As for `CC[C@H](C)[C@H](NC(=O)[C@H](Cc1ccc(O)cc1)NC(=O)[C@@H](NC(=O)[C@@H](N)CCCCN)C(C)C)C(=O)NCC(=O)N[C@@H](Cc1ccc(O)cc1)C(=O)N[C@@H](CS)C(=O)N[C@@H](CCSC)C(=O)N[C@@H](C)C(=O)O` [3102.0272] (H-KVYIGYCMA-OH), the midpoint of inhibition, the IC50, lay at 2.6 nM.

As to `CC(C)C[C@H](N)C(=O)N[C@@H](C)C(=O)N[C@@H](CCCNC(=N)N)C(=O)N[C@@H](CCCNC(=N)N)C(=O)N1CCC[C@H]1C(=O)N[C@H](C(=O)N1CCC[C@H]1C(=O)N[C@@H](CCCCN)C(=O)N[C@@H](CCCCN)C(=O)O)[C@@H](C)O` [3102.0275] (H-LARRPTPKK-OH), the IC50 amounted to 10 nM. On the same count and under the same terms, as for `CC[C@H](C)[C@H](NC(=O)[C@H](CO)NC(=O)[C@H](CO)NC(=O)[C@H](CO)NC(=O)[C@H](CCCCN)NC(=O)[C@H](CCCNC(=N)N)NC(=O)[C@H](CO)NC(=O)CN)C(=O)N[C@@H](CC(C)C)C(=O)O` [3102.0276] (H-GSRKSSSIL-OH), the figure is 1.6 nM; as for `CSCC[C@H](NC(=O)[C@H](CCSC)NC(=O)[C@@H]1CCCN1C(=O)[C@@H](NC(=O)[C@@H](NC(=O)[C@H](CC(N)=O)NC(=O)[C@H](CCCNC(=N)N)NC(=O)[C@H](CO)NC(=O)[C@@H](N)CCCCN)[C@@H](C)O)[C@@H](C)O)C(=O)O` [3102.0277] (H-KSRNTTPMM-OH), 0.1 nM. Consider `C[C@H](NC(=O)[C@H](CCCNC(=N)N)NC(=O)[C@H](Cc1ccccc1)NC(=O)[C@H](CCCCN)NC(=O)[C@@H]1CCCN1C(=O)[C@@H]1CCCN1C(=O)[C@H](CCCCN)NC(=O)[C@H](Cc1ccccc1)NC(=O)[C@@H](N)Cc1c[nH]cn1)C(=O)O` [3102.0279] (H-HFKPPKFRA-OH), for which 8.9 nM corresponded to half-maximal inhibition (IC50).

`CC[C@H](C)[C@H](NC(=O)[C@H](C)NC(=O)[C@H](Cc1ccc(O)cc1)NC(=O)[C@H](CCCCN)NC(=O)[C@H](CCCCN)NC(=O)[C@H](CCCCN)NC(=O)[C@@H](NC(=O)[C@@H](N)CCCCN)C(C)C)C(=O)NCC(=O)O` [3102.0280] (H-KVKKKYAIG-OH): the half-inhibitory concentration (IC50) came to 1.6 nM. Consider `CC(C)C[C@H](NC(=O)[C@H](CCCNC(=N)N)NC(=O)[C@H](Cc1ccc(O)cc1)NC(=O)[C@H](CCC(=O)O)NC(=O)[C@H](CCC(N)=O)NC(=O)[C@H](Cc1ccccc1)NC(=O)[C@@H](NC(=O)[C@@H](N)Cc1c[nH]cn1)C(C)C)C(=O)N[C@@H](CCCCN)C(=O)O` [3102.0284] (H-HVFQEYRLK-OH), for which the half-inhibitory concentration (IC50) was determined as 27 nM. For `CC[C@H](C)[C@H](NC(=O)[C@H](CCCCN)NC(=O)[C@@H](NC(=O)[C@@H](N)CCCCN)[C@@H](C)O)C(=O)N[C@@H](CC(=O)O)C(=O)N[C@H](C(=O)N[C@H](C(=O)N[C@@H](Cc1ccccc1)C(=O)N[C@@H](C)C(=O)O)[C@@H](C)CC)[C@@H](C)CC` [3102.0285] (H-KTKIDIIFA-OH), 10 nM corresponded to half-maximal inhibition (IC50). `CC(C)C[C@H](NC(=O)[C@H](C)NC(=O)[C@H](CCC(=O)O)NC(=O)[C@H](CCCNC(=N)N)NC(=O)[C@@H](NC(=O)[C@@H](N)CCCCN)C(C)C)C(=O)N[C@@H](CC(=O)O)C(=O)NCC(=O)N[C@H](C(=O)O)C(C)C` [3102.0286] (H-KVREALDGV-OH): half-maximal inhibition (IC50) required 0.11 nM. Take `CSCC[C@H](NC(=O)[C@H](CO)NC(=O)[C@H](C)NC(=O)CNC(=O)[C@H](CCCCN)NC(=O)[C@H](C)NC(=O)[C@H](C)N)C(=O)N[C@H](C(=O)N[C@@H](CC(C)C)C(=O)O)[C@@H](C)O` [3102.0287] (H-AAKGASMTL-OH): the IC50 turned out to be 1 nM. The same measure, in the same setting: then `CC[C@H](C)[C@H](NC(=O)[C@H](CC(N)=O)NC(=O)[C@H](CCCNC(=N)N)NC(=O)[C@@H](NC(=O)[C@@H](NC(=O)[C@H](CC(N)=O)NC(=O)[C@H](CCCNC(=N)N)NC(=O)[C@@H](NC(=O)[C@@H](N)CCCCN)[C@@H](C)O)C(C)C)[C@@H](C)CC)C(=O)O` [3102.0486] (H-KTRNVIRNI-OH), with 0.072 nM. Same read-out and setting: as for `CC[C@H](C)[C@H](NC(=O)[C@H](CC(=O)O)NC(=O)[C@H](CC(C)C)NC(=O)[C@H](Cc1ccccc1)NC(=O)[C@@H](N)CC(C)C)C(=O)N[C@@H](CCC(=O)O)C(=O)N[C@@H](CS)C(=O)N[C@@H](Cc1c[nH]cn1)C(=O)N[C@@H](Cc1ccccc1)C(=O)O` [3102.0932] (H-LFLDIECHF-OH), the figure is 19 nM; as for `CC[C@H](C)[C@H](NC(=O)[C@H](Cc1c[nH]cn1)NC(=O)[C@H](Cc1ccc(O)cc1)NC(=O)[C@H](C)NC(=O)[C@H](CCCCN)NC(=O)[C@@H](N)CCCNC(=N)N)C(=O)N[C@H](C(=O)N[C@@H](Cc1ccccc1)C(=O)N[C@@H](Cc1ccccc1)C(=O)O)[C@@H](C)CC` [3102.1054] (H-RKAYHIIFF-OH), 5.4 nM; as for `CC(C)C[C@H](NC(=O)[C@H](CO)NC(=O)[C@H](CCC(N)=O)NC(=O)[C@@H](N)Cc1ccc(O)cc1)C(=O)N[C@@H](CO)C(=O)N1CCC[C@H]1C(=O)N1CCC[C@H]1C(=O)N1CCC[C@H]1C(=O)N[C@@H](Cc1ccccc1)C(=O)O` [3102.1242] (H-YQSLSPPPF-OH), 0.5 nM. As to `CC(C)C[C@H](NC(=O)[C@H](CO)NC(=O)[C@H](CCCCN)NC(=O)[C@H](CO)NC(=O)[C@H](C)N)C(=O)N[C@@H](CCCCN)C(=O)N1CCC[C@H]1C(=O)N[C@H](C(=O)N[C@@H](CCCCN)C(=O)O)[C@@H](C)O` [3102.1346] (H-ASKSLKPTK-OH), the 50% inhibitory concentration (IC50) turned out to be 15 nM.

In the case of `CC[C@H](C)[C@H](NC(=O)[C@H](CCCCN)NC(=O)[C@H](C)NC(=O)CN)C(=O)NCC(=O)N[C@@H](CS)C(=O)N[C@H](C(=O)N[C@@H](CC(N)=O)C(=O)N[C@H](C(=O)O)C(C)C)[C@@H](C)CC` [3102.1347] (H-GAKIGCINV-OH), the IC50 came out at 9.1 nM. The molecule `CC[C@H](C)[C@H](NC(=O)[C@H](CCCCN)NC(=O)[C@H](CO)NC(=O)[C@H](CCCCN)NC(=O)[C@@H](NC(=O)[C@@H](N)CCCNC(=N)N)[C@@H](C)O)C(=O)N[C@@H](CC(C)C)C(=O)N[C@@H](Cc1ccccc1)C(=O)NCC(=O)O` [3102.1348] (H-RTKSKILFG-OH) returned an IC50 of 10 nM. The same measure, in the same setting: then `C[C@H](NC(=O)[C@H](C)NC(=O)[C@@H]1CCCN1C(=O)[C@H](CCCCN)NC(=O)[C@H](CO)NC(=O)[C@H](CCCNC(=N)N)NC(=O)[C@H](CO)NC(=O)[C@H](Cc1ccc(O)cc1)NC(=O)[C@@H](N)CCCCN)C(=O)O` [3102.1349] (H-KYSRSKPAA-OH), with 5.7 nM. Same read-out and setting: then `CC[C@H](C)[C@H](NC(=O)[C@H](Cc1ccc(O)cc1)NC(=O)[C@H](CCC(N)=O)NC(=O)[C@H](Cc1ccc(O)cc1)NC(=O)[C@H](CCSC)NC(=O)[C@H](C)NC(=O)[C@H](C)N)C(=O)N[C@@H](Cc1ccccc1)C(=O)N[C@@H](CC(C)C)C(=O)O` [3102.1350] (H-AAMYQYIFL-OH), with 7.5 nM.

By IC50 is commonly meant the point on the concentration scale where inhibition reaches its midpoint.
